Values after ≈ are worked out from the molar mass of the structure shown.
How the values were obtained:
[1] = tested on: Human immunodeficiency virus 2; test: Antiviral activity against HIV2 ROD in MT4 cells assessed as inhibition of virus-induced cytopathogenicity by MTT assay; assay type: functional, organism-based; conditions: Human immunodeficiency virus 2, ROD
[2] = tested on: Human immunodeficiency virus 1; test: Antiviral activity against HIV1 3B in MT4 cells assessed as inhibition of virus-induced cytopathogenicity by MTT assay; assay type: functional, organism-based; conditions: Human immunodeficiency virus 1, 3B
[3] = Cytotoxicity against mock-infected human MT4 cells after 5 days by MTT assay; assay type: cell-based
[4] = Selectivity index, ratio of CC50 for human MT4 cells to EC50 for HIV1 3B; assay type: toxicity, cell-based; conditions: read-out: Ratio CC50/EC50
[5] = Selectivity index, ratio of CC50 for human MT4 cells to EC50 for HIV2 ROD; assay type: toxicity, cell-based; conditions: read-out: Ratio CC50/EC50
[6] = Selectivity index, ratio of CC50 for human CEM cells to EC50 for HIV1 3B; assay type: toxicity, cell-based, CCRF-CEM; conditions: read-out: Ratio CC50/EC50
[7] = Cytotoxicity against mock-infected human CEM cells by Coulter counter; assay type: cell-based; conditions: mock-infected CEM (CCRF-CEM) cells
[8] = tested on: Human immunodeficiency virus 1; test: Antiviral activity against HIV1 3B in PBMC assessed as inhibition of p24 production after 7 days by ELISA; assay type: functional, organism-based; conditions: Human immunodeficiency virus 1, 3B, 168 h
[9] = tested on: Human immunodeficiency virus 1; test: Antiviral activity against HIV1 3B in CEM cells assessed as inhibition of virus-induced syncytium formation after 4 days by microscopy; assay type: functional, organism-based; conditions: Human immunodeficiency virus 1, 3B, CCRF-CEM, 96 h
[10] = tested on: Human immunodeficiency virus 2; test: Antiviral activity against HIV2 ROD in CEM cells assessed as inhibition of virus-induced syncytium formation after 4 days by microscopy; assay type: functional, organism-based; conditions: Human immunodeficiency virus 2, ROD, CCRF-CEM, 96 h
[11] = Selectivity index, ratio of CC50 for human CEM cells to EC50 for HIV2 ROD; assay type: toxicity, cell-based, CCRF-CEM; conditions: read-out: Ratio CC50/EC50
[12] = Selectivity index, ratio of CC50 for human PBMC cells to EC50 for HIV1 3B; assay type: toxicity, cell-based; conditions: read-out: Ratio CC50/EC50
[13] = Cytotoxicity against mock-infected human PBMC cells by trypan blue exclusion assay; assay type: cell-based

| SMILES | EC50 [1] | EC50 [2] | CC50 at 120 h [3] | selectivity ratio [4] | selectivity ratio [5] | selectivity ratio [6] | CC50 [7] | EC50 [8] | EC50 [9] | EC50 [10] | selectivity ratio [11] | selectivity ratio [12] | CC50 [13] |
| --- | --- | --- | --- | --- | --- | --- | --- | --- | --- | --- | --- | --- | --- |
| CCN(CCNc1cc2c(cc1N)c(=O)c(C(=O)O)cn2C)c1ccccn1 | > 16.9 µg/mL | > 16.9 µg/mL | 16.9 µg/mL (≈ 44.2 µM) | – | – | – | – | – | – | – | – | – | – |
| Cn1cc(C(=O)O)c(=O)c2cc(N)c(N3CCN(c4ccccn4)CC3)cc21 | 0.097 µg/mL (≈ 0.256 µM) | 0.058 µg/mL (≈ 0.153 µM) | 0.84 µg/mL (≈ 2.21 µM) | 15 | 10 | > 3330 | > 100 µg/mL | 0.051 µg/mL (≈ 0.134 µM) | 0.03 µg/mL (≈ 0.0791 µM) | 0.06 µg/mL (≈ 0.158 µM) | > 1670 | 29 | 1.45 µg/mL (≈ 3.82 µM) |
| Cn1cc(C(=O)NCc2ccc(Cl)cc2)c(=O)c2cc(N)c(N3CCN(c4ccccn4)CC3)cc21 | > 125 µg/mL | > 125 µg/mL | > 125 µg/mL | – | 1 | – | – | – | – | – | – | – | – |
| Cn1cc(C(=O)O)c(=O)c2cc(N)c(N3CCC(c4ccccn4)C3)cc21 (stereo not given) | > 90.8 µg/mL | > 90.8 µg/mL | > 90.8 µg/mL | < 1 | < 1 | – | – | – | – | – | – | – | – |
| Nc1cc2c(=O)c(C(=O)O)c[nH]c2cc1N1CCN(c2cccc(C(F)(F)F)c2)CC1 | 0.46 µg/mL (≈ 1.06 µM) | 0.38 µg/mL (≈ 0.879 µM) | 1.64 µg/mL (≈ 3.79 µM) | 4 | 4 | – | – | – | – | – | – | – | – |
| Cn1cc(C(=O)O)c(=O)c2ccc(N3CCN(c4cnccn4)CC3)cc21 | 16.4 µg/mL (≈ 44.7 µM) | 58.2 µg/mL (≈ 159 µM) | > 125 µg/mL | > 2 | 8 | > 3 | > 100 µg/mL | – | 35 µg/mL (≈ 95.8 µM) | 47.5 µg/mL (≈ 130 µM) | > 2 | – | – |
| Nc1cc2c(=O)c(C(=O)O)c[nH]c2cc1N1CCN(c2nc3ccccc3o2)CC1 | 0.28 µg/mL (≈ 0.691 µM) | 0.23 µg/mL (≈ 0.567 µM) | 1.95 µg/mL (≈ 4.81 µM) | 11 | 7 | 11 | 3.17 µg/mL (≈ 7.82 µM) | 0.16 µg/mL (≈ 0.395 µM) | 0.3 µg/mL (≈ 0.74 µM) | 0.23 µg/mL (≈ 0.567 µM) | 14 | 7 | 1.12 µg/mL (≈ 2.76 µM) |
| Cc1cccc(Sc2cc3c(cc2N)c(=O)c(C(=O)O)cn3C)c1 | > 2 µg/mL | > 2 µg/mL | > 2 µg/mL | < 1 | < 1 | – | – | – | – | – | – | – | – |
| C/C(=N\O)c1cn(C)c2cc(N3CCN(c4ccccn4)CC3)c(N)cc2c1=O | > 125 µg/mL | > 125 µg/mL | > 125 µg/mL | – | – | – | – | – | – | – | – | – | – |
| Nc1cc2c(=O)c(C(=O)O)c[nH]c2cc1N1CCN(c2ccccn2)CC1 | 0.16 µg/mL (≈ 0.438 µM) | 0.45 µg/mL (≈ 1.23 µM) | 2.16 µg/mL (≈ 5.91 µM) | 5 | 14 | 93 | 4.75 µg/mL (≈ 13 µM) | 0.094 µg/mL (≈ 0.257 µM) | 0.051 µg/mL (≈ 0.14 µM) | 0.09 µg/mL (≈ 0.246 µM) | 53 | 13 | 1.28 µg/mL (≈ 3.5 µM) |
| Cn1cc(C(=O)O)c(=O)c2cc(N)c(N3CCC(c4ccccn4)CC3)cc21 | > 125 µg/mL | > 125 µg/mL | > 125 µg/mL | – | – | – | – | – | – | – | – | – | – |
| Cn1ccc(=O)c2cc(N)c(N3CCN(c4ccccn4)CC3)cc21 | > 104 µg/mL | > 105 µg/mL | 105 µg/mL (≈ 313 µM) | < 1 | < 1 | – | – | – | – | – | – | – | – |
| CO/N=C(\C)c1cn(C)c2cc(N3CCN(c4ccccn4)CC3)c(N)cc2c1=O | > 92.6 µg/mL | > 92.6 µg/mL | 92.7 µg/mL (≈ 228 µM) | < 1 | < 1 | – | – | – | – | – | – | – | – |
| Cn1cc(C(=O)O)c(=O)c2cc(N)c(N3CCNCC3)cc21 | > 94 µg/mL | > 94 µg/mL | ≥ 94 µg/mL | – | – | – | – | – | – | – | – | – | – |
| Cn1cc(C(N)=O)c(=O)c2cc(N)c(N3CCN(c4ccccn4)CC3)cc21 | > 125 µg/mL | > 125 µg/mL | > 125 µg/mL | – | – | – | – | – | – | – | – | – | – |
| Cn1cc(C(=O)O)c(=O)c2cc(N)c(N3CCN(c4ccc5ccccc5n4)CC3)cc21 | 0.022 µg/mL (≈ 0.0512 µM) | 0.035 µg/mL (≈ 0.0815 µM) | 0.21 µg/mL (≈ 0.489 µM) | 6 | 10 | 115 | 4.15 µg/mL (≈ 9.66 µM) | – | 0.036 µg/mL (≈ 0.0838 µM) | 0.075 µg/mL (≈ 0.175 µM) | 55 | – | – |
| Cn1ccc(=O)c2cc(N)c(N3CCN(c4nccs4)CC3)cc21 | > 89.5 µg/mL | > 89.5 µg/mL | 89.5 µg/mL (≈ 262 µM) | < 1 | < 1 | – | – | – | – | – | – | – | – |
| Cn1cc(C(=O)O)c(=O)c2cc(N)c(N3CCN(Cc4ccccn4)CC3)cc21 | > 125 µg/mL | > 125 µg/mL | > 125 µg/mL | – | – | – | – | – | – | – | – | – | – |
| Cn1cc(C(=O)O)c(=O)c2ccc(N3CCN(c4ccccn4)CC3)cc21 | > 65.5 µg/mL | 19.2 µg/mL (≈ 52.7 µM) | 65.5 µg/mL (≈ 180 µM) | 3.4 | < 1 | > 83 | > 100 µg/mL | 1.35 µg/mL (≈ 3.7 µM) | 1.2 µg/mL (≈ 3.29 µM) | 1.8 µg/mL (≈ 4.94 µM) | > 56 | > 74 | > 100 µg/mL |
| Cn1cc(C(=O)O)c(=O)c2cc(N)c(N3CCN(c4cnc5ccccc5n4)CC3)cc21 | 0.19 µg/mL (≈ 0.441 µM) | 0.18 µg/mL (≈ 0.418 µM) | 3.2 µg/mL (≈ 7.43 µM) | 18 | 17 | > 80 | > 4 µg/mL | – | 0.05 µg/mL (≈ 0.116 µM) | 0.28 µg/mL (≈ 0.65 µM) | > 14 | – | – |
| Cn1cc(C(=O)NCc2ccc(F)cc2F)c(=O)c2cc(N)c(N3CCN(c4ccccn4)CC3)cc21 | > 32.2 µg/mL | > 32.2 µg/mL | 32.2 µg/mL (≈ 63.9 µM) | < 1 | < 1 | – | – | – | – | – | – | – | – |
| Nc1cc2c(=O)c(C(=O)O)c[nH]c2cc1N1CCN(c2nccs2)CC1 | 1.92 µg/mL (≈ 5.17 µM) | 1.21 µg/mL (≈ 3.26 µM) | 7.61 µg/mL (≈ 20.5 µM) | 7 | 5 | 23 | 15.8 µg/mL (≈ 42.5 µM) | 0.21 µg/mL (≈ 0.565 µM) | 0.7 µg/mL (≈ 1.88 µM) | 0.6 µg/mL (≈ 1.62 µM) | 26 | 10 | 2.02 µg/mL (≈ 5.44 µM) |
| CC(=O)c1cn(C)c2cc(N3CCN(c4ccccn4)CC3)c(N)cc2c1=O | > 125 µg/mL | > 125 µg/mL | > 125 µg/mL | – | – | – | – | – | – | – | – | – | – |
| Cn1cc(C(=O)O)c(=O)c2ccc(N3CCN(c4nccs4)CC3)cc21 | 12.7 µg/mL (≈ 34.3 µM) | 10 µg/mL (≈ 27.1 µM) | > 125 µg/mL | > 12 | > 10 | ≥ 38 | ≥ 100 µg/mL | – | 2.6 µg/mL (≈ 7.02 µM) | 8 µg/mL (≈ 21.6 µM) | ≥ 12 | – | – |
| Cn1ccc(=O)c2cc(N)c(N3CCN(c4nc5ccccc5o4)CC3)cc21 | > 72.1 µg/mL | > 72.1 µg/mL | 72.1 µg/mL (≈ 192 µM) | < 1 | < 1 | – | – | – | – | – | – | – | – |
